Measured values published in patent US12723063B2, “GIPR-agonist compounds” (Eli Lilly and Company, priority 2019, dated 2026).
*1 amine or outer side, *2 acyl side, *3 side chain or, on linkers, in order; H or OH if unused. Where a SMILES comes first, the peptide text is derived from it. Side-chain parts run from the residue outwards. [ ]: non-standard residue; d: D form. The star is where a group is joined. C20 diacid = O=C(O)CCCCCCCCCCCCCCCCCCC(=O)*; γGlu = O=C(O)[C@H](CCC(=O)[*:2])N[*:1]; 4Pal = N[C@@H](Cc1ccncc1)C(=O)O; αMeL = CC(C)C[C@](C)(N)C(=O)O; Iva = CC[C@](C)(N)C(=O)O; Orn = NCCC[C@H](N)C(=O)O; AEEA = NCCOCCOCC(=O)O; Aib = CC(C)(N)C(=O)O

Tests used:
[1] = molecular target: T1, human GIPR (Homo sapiens, UniProt P48546); assay: [125I]-GIP binding, SPA with WGA beads, 0.1% bacitracin; conditions: geometric mean, read-out: hGIPR Ki
T1 construct: expressed in transfected cells; crude membranes
T1 sequence (P48546 22-466): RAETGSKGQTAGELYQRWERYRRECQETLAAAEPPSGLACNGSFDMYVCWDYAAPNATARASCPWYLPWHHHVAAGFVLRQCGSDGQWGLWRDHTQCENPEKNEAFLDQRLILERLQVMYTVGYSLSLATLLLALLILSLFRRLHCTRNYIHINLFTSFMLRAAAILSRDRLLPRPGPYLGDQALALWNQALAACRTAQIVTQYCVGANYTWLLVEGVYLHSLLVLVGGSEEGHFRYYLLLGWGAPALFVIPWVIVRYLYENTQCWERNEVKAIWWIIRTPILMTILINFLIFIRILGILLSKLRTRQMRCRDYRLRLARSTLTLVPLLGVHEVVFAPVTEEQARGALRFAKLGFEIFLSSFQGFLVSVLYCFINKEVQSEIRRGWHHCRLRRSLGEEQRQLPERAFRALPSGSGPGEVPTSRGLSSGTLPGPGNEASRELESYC
Method in brief: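 Ki values are geometric means (SEM, n independent days), derived from four-parameter nonlinear regression of IC50. Membranes came from hGIPR-expressing CHO cells.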

[2] = molecular target: T2, human GLP-1R (Homo sapiens, UniProt P43220); assay: [125I]-GLP-1 binding, SPA with WGA beads, 0.1% bacitracin; conditions: geometric mean, read-out: hGLP1R Ki
T2 construct: expressed in transfected cells; crude membranes
T2 sequence (P43220 24-463): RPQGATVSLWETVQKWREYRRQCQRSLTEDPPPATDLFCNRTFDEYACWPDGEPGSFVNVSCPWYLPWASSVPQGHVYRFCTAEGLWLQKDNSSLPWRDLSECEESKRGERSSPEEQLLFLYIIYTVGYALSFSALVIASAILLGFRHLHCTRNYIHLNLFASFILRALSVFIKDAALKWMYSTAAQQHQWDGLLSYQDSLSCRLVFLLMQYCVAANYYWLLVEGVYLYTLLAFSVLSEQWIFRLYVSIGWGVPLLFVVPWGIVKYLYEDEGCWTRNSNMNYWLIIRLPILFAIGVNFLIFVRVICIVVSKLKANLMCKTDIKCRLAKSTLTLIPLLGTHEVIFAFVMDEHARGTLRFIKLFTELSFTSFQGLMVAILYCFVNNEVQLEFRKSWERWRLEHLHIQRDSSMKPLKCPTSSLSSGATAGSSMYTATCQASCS
Method in brief: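 Binding buffer was 25 mM HEPES pH 7.4 with 2.5 mM CaCl2, 1 mM MgCl2, 0.1% (w/v) bacitracin, 0.003% Tween-20 and EDTA-free protease inhibitors. Four-parameter regression gave IC50, converted to Ki (geometric mean, SEM, n independent days).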

Structure (SMILES)	Ki [1]	Ki [2]
CC[C@H](C)[C@H](NC(=O)[C@H](Cc1ccccc1)NC(=O)[C@@H](NC(=O)CNC(=O)[C@H](CCC(=O)O)NC(=O)C(C)(C)NC(=O)[C@@H](N)Cc1ccc(O)cc1)[C@@H](C)O)C(=O)N[C@@H](CO)C(=O)N[C@@H](CC(=O)O)C(=O)N[C@@H](Cc1ccc(O)cc1)C(=O)N[C@@H](CO)C(=O)N[C@H](C(=O)N[C@@](C)(CC(C)C)C(=O)N[C@@H](CC(C)C)C(=O)N[C@@H](CC(=O)O)C(=O)N[C@@H](CCCN)C(=O)N[C@@H](CCCCNC(=O)COCCOCCNC(=O)COCCOCCNC(=O)CC[C@H](NC(=O)CCCCCCCCCCCCCCCCCCC(=O)O)C(=O)O)C(=O)N[C@@H](Cc1c[nH]cn1)C(=O)N[C@@H](CCC(N)=O)C(=O)NC(C)(C)C(=O)N[C@@H](CC(=O)O)C(=O)N[C@@H](Cc1ccccc1)C(=O)N[C@H](C(=O)N[C@@H](CCC(=O)O)C(=O)N[C@@H](Cc1ccncc1)C(=O)N[C@@H](CC(C)C)C(=O)N[C@@H](CC(C)C)C(=O)N[C@@H](CCC(=O)O)C(=O)N[C@@H](C)C(=O)NCC(=O)N1CCC[C@H]1C(=O)N[C@@H](CO)C(=O)N[C@@H](CO)C(=O)NCC(=O)N[C@@H](C)C(=O)N1CCC[C@H]1C(=O)N1CCC[C@H]1C(=O)N1CCC[C@H]1C(=O)N[C@@H](CO)C(N)=O)C(C)C)[C@@H](C)CC [Example 4]	0.062 nM	423 nM
CC[C@H](C)[C@H](NC(=O)[C@H](CO)NC(=O)[C@H](Cc1ccc(O)cc1)NC(=O)[C@H](CC(=O)O)NC(=O)[C@H](CO)NC(=O)[C@@H](NC(=O)[C@](C)(CC)NC(=O)[C@@H](NC(=O)CNC(=O)[C@H](CCC(=O)O)NC(=O)C(C)(C)NC(=O)[C@@H](N)Cc1ccc(O)cc1)[C@@H](C)O)[C@@H](C)CC)C(=O)N[C@@](C)(CC(C)C)C(=O)N[C@@H](CC(C)C)C(=O)N[C@@H](CC(=O)O)C(=O)N[C@@H](CCCN)C(=O)N[C@@H](CCCCNC(=O)COCCOCCNC(=O)COCCOCCNC(=O)CC[C@H](NC(=O)CCCCCCCCCCCCCCCCCCC(=O)O)C(=O)O)C(=O)N[C@@H](Cc1c[nH]cn1)C(=O)N[C@@H](CCC(N)=O)C(=O)NC(C)(C)C(=O)N[C@@H](CC(=O)O)C(=O)N[C@@H](Cc1ccccc1)C(=O)N[C@H](C(=O)N[C@@H](CCC(=O)O)C(=O)N[C@@H](Cc1ccncc1)C(=O)N[C@@H](CC(C)C)C(=O)N[C@@H](CC(C)C)C(=O)N[C@@H](CCC(=O)O)C(=O)NCC(=O)NCC(=O)N1CCC[C@H]1C(=O)N[C@@H](CO)C(=O)N[C@@H](CO)C(=O)NCC(=O)N[C@@H](C)C(=O)N1CCC[C@H]1C(=O)N1CCC[C@H]1C(=O)N1CCC[C@H]1C(=O)N[C@@H](CO)C(N)=O)C(C)C [Example 76] (H-Y[Aib]EGT[Iva]ISDYSI[αMeL]LD[Orn]K([AEEA-AEEA-γGlu-C20 diacid])HQ[Aib]DFVE[4Pal]LLEGGPSSGAPPPS-NH2)	0.0293 nM	263 nM
CC[C@H](C)[C@H](NC(=O)[C@H](CC(C)C)NC(=O)[C@@H](NC(=O)CNC(=O)[C@H](CCC(=O)O)NC(=O)C(C)(C)NC(=O)[C@@H](N)Cc1ccc(O)cc1)[C@@H](C)O)C(=O)N[C@@H](CO)C(=O)N[C@@H](CC(=O)O)C(=O)N[C@@H](Cc1ccc(O)cc1)C(=O)N[C@@H](CO)C(=O)N[C@H](C(=O)N[C@@](C)(CC(C)C)C(=O)N[C@@H](CC(C)C)C(=O)N[C@@H](CC(=O)O)C(=O)N[C@@H](CCCCN)C(=O)N[C@@H](CCCCNC(=O)COCCOCCNC(=O)COCCOCCNC(=O)CC[C@H](NC(=O)CCCCCCCCCCCCCCCCCCC(=O)O)C(=O)O)C(=O)N[C@@H](Cc1c[nH]cn1)C(=O)N[C@@H](CCC(N)=O)C(=O)NC(C)(C)C(=O)N[C@@H](CC(=O)O)C(=O)N[C@@H](Cc1ccccc1)C(=O)N[C@H](C(=O)N[C@@H](CCC(=O)O)C(=O)N[C@@H](Cc1ccncc1)C(=O)N[C@@H](CC(C)C)C(=O)N[C@@H](CC(C)C)C(=O)N[C@@H](CCC(=O)O)C(=O)N[C@@H](C)C(=O)NCC(=O)N1CCC[C@H]1C(=O)N[C@@H](CO)C(=O)N[C@@H](CO)C(=O)NCC(=O)N[C@@H](C)C(=O)N1CCC[C@H]1C(=O)N1CCC[C@H]1C(=O)N1CCC[C@H]1C(=O)N[C@@H](CO)C(N)=O)C(C)C)[C@@H](C)CC [Example 89] (H-Y[Aib]EGTLISDYSI[αMeL]LDKK([AEEA-AEEA-γGlu-C20 diacid])HQ[Aib]DFVE[4Pal]LLEAGPSSGAPPPS-NH2)	0.072 nM	294 nM
CC[C@H](C)[C@H](NC(=O)[C@H](CCCCN)NC(=O)[C@H](CC(=O)O)NC(=O)[C@H](CC(C)C)NC(=O)[C@](C)(CC(C)C)NC(=O)[C@@H](NC(=O)[C@H](CO)NC(=O)[C@H](Cc1ccc(O)cc1)NC(=O)[C@H](CC(=O)O)NC(=O)[C@H](CO)NC(=O)[C@@H](NC(=O)[C@H](Cc1ccccc1)NC(=O)[C@@H](NC(=O)CNC(=O)[C@H](CCC(=O)O)NC(=O)C(C)(C)NC(=O)[C@@H](N)Cc1ccc(O)cc1)[C@@H](C)O)[C@@H](C)CC)[C@@H](C)CC)C(=O)N[C@@H](Cc1c[nH]cn1)C(=O)N[C@@H](CCC(N)=O)C(=O)NC(C)(C)C(=O)N[C@@H](CC(=O)O)C(=O)N[C@@H](Cc1ccccc1)C(=O)N[C@H](C(=O)N[C@@H](CCC(=O)O)C(=O)N[C@@H](Cc1ccc(O)cc1)C(=O)N[C@@H](CCCCNC(=O)COCCOCCNC(=O)COCCOCCNC(=O)CC[C@H](NC(=O)CCCCCCCCCCCCCCCCCCC(=O)O)C(=O)O)C(=O)N[C@@H](CC(C)C)C(=O)N[C@@H](CCC(=O)O)C(=O)N[C@@H](C)C(=O)NCC(=O)N1CCC[C@H]1C(=O)N[C@@H](CO)C(=O)N[C@@H](CO)C(=O)NCC(=O)N[C@@H](C)C(=O)N1CCC[C@H]1C(=O)N1CCC[C@H]1C(=O)N1CCC[C@H]1C(=O)N[C@@H](CO)C(N)=O)C(C)C [Example 117] (H-Y[Aib]EGTFISDYSI[αMeL]LDKIHQ[Aib]DFVEYK([AEEA-AEEA-γGlu-C20 diacid])LEAGPSSGAPPPS-NH2)	0.0722 nM	591 nM
CC[C@H](C)[C@H](NC(=O)[C@H](CO)NC(=O)[C@H](Cc1ccc(O)cc1)NC(=O)[C@H](CC(=O)O)NC(=O)[C@H](CO)NC(=O)[C@@H](NC(=O)[C@H](Cc1ccccc1)NC(=O)[C@@H](NC(=O)CNC(=O)[C@H](CCC(=O)O)NC(=O)[C@@H](C)NC(=O)[C@@H](N)Cc1ccc(O)cc1)[C@@H](C)O)[C@@H](C)CC)C(=O)N[C@@H](CC(C)C)C(=O)N[C@@H](CC(C)C)C(=O)N[C@@H](CC(=O)O)C(=O)N[C@@H](CCCCN)C(=O)N[C@@H](CCCCNC(=O)COCCOCCNC(=O)COCCOCCNC(=O)CC[C@H](NC(=O)CCCCCCCCCCCCCCCCCCC(=O)O)C(=O)O)C(=O)N[C@@H](Cc1c[nH]cn1)C(=O)N[C@@H](CCC(N)=O)C(=O)NC(C)(C)C(=O)N[C@@H](CC(=O)O)C(=O)N[C@@H](Cc1ccccc1)C(=O)N[C@H](C(=O)N[C@@H](CC(N)=O)C(=O)N[C@@H](Cc1c[nH]c2ccccc12)C(=O)N[C@@H](CC(C)C)C(=O)N[C@@H](CC(C)C)C(=O)N[C@@H](C)C(=O)N[C@@H](CCC(N)=O)C(=O)NCC(=O)N1CCC[C@H]1C(=O)N[C@@H](CO)C(=O)N[C@@H](CO)C(=O)NCC(=O)N[C@@H](C)C(=O)N1CCC[C@H]1C(=O)N1CCC[C@H]1C(=O)N1CCC[C@H]1C(=O)N[C@@H](CO)C(N)=O)C(C)C [Example 9] (H-Y[dA]EGTFISDYSILLDKK([AEEA-AEEA-γGlu-C20 diacid])HQ[Aib]DFVNWLLAQGPSSGAPPPS-NH2)	0.11 nM	168 nM
CC[C@H](C)[C@H](NC(=O)[C@H](CCCN)NC(=O)[C@H](CC(=O)O)NC(=O)[C@H](CC(C)C)NC(=O)[C@](C)(CC(C)C)NC(=O)[C@@H](NC(=O)[C@H](CO)NC(=O)[C@H](Cc1ccc(O)cc1)NC(=O)[C@H](CC(=O)O)NC(=O)[C@H](CO)NC(=O)[C@@H](NC(=O)[C@H](Cc1ccccc1)NC(=O)[C@@H](NC(=O)CNC(=O)[C@H](CCC(=O)O)NC(=O)C(C)(C)NC(=O)[C@@H](N)Cc1ccc(O)cc1)[C@@H](C)O)[C@@H](C)CC)[C@@H](C)CC)C(=O)N[C@@H](Cc1c[nH]cn1)C(=O)N[C@@H](CCC(N)=O)C(=O)NC(C)(C)C(=O)N[C@@H](CC(=O)O)C(=O)N[C@@H](Cc1ccccc1)C(=O)N[C@H](C(=O)N[C@@H](CCC(=O)O)C(=O)N[C@@H](Cc1ccc(O)cc1)C(=O)N[C@@H](CCCCNC(=O)COCCOCCNC(=O)COCCOCCNC(=O)CC[C@H](NC(=O)CCCCCCCCCCCCCCCCCCC(=O)O)C(=O)O)C(=O)N[C@@H](CC(C)C)C(=O)N[C@@H](CCC(=O)O)C(=O)NCC(=O)NCC(=O)N1CCC[C@H]1C(=O)N[C@@H](CO)C(=O)N[C@@H](CO)C(=O)NCC(=O)N[C@@H](C)C(=O)N1CCC[C@H]1C(=O)N1CCC[C@H]1C(=O)N1CCC[C@H]1C(=O)N[C@@H](CO)C(N)=O)C(C)C [Example 6]	0.104 nM	571 nM
